Results: US20150051206A1, “COMPOUNDS AND COMPOSITIONS AS C-KIT KINASE INHIBITORS” (IRM LLC, priority 2011, published 2015)

Target: T1, c-kit (Homo sapiens, UniProt P10721)
T1 construct: human Mo7e cells which endogenously express c-kit; endogenous in cells; host or cells: human Mo7e cells (promegakaryocytic leukemia line), stimulated with human recombinant SCF
Assay: Mo7e cell proliferation assay (SCF dependent proliferation)
Type: cell-based
Details: Mo7e cells stimulated with human recombinant SCF, 48 hours
Protocol: Compounds of Formula (I) and Formula (II) provided herein were assayed to measure their capacity to inhibit c-kit and PDGFR kinases using the appropriate assay described below: c-Kit inhibition was evaluated using the Mo7e cell proliferation assay, and PDGFR inhibition was evaluated using the Rat A10 cell proliferation assay and the Human TG/HA-VSMC cell proliferation assay.
The compounds of Table 1 and Table 2 were tested for inhibition of SCF dependent proliferation using human Mo7e cells which endogenously express c-kit in a 384 well format. […] After 48 hours of incubation at 37° C., cell viability was measured by adding 25 uL of CellTiter Glo (Promega) to the cells and the luminescence was measured by a CLIPR CCD camera (Molecular Devices).
The IC50 value is given as that concentration of the test compound in question that provoke a response halfway between the baseline and maximum responses.

T1 sequence (P10721 26-976): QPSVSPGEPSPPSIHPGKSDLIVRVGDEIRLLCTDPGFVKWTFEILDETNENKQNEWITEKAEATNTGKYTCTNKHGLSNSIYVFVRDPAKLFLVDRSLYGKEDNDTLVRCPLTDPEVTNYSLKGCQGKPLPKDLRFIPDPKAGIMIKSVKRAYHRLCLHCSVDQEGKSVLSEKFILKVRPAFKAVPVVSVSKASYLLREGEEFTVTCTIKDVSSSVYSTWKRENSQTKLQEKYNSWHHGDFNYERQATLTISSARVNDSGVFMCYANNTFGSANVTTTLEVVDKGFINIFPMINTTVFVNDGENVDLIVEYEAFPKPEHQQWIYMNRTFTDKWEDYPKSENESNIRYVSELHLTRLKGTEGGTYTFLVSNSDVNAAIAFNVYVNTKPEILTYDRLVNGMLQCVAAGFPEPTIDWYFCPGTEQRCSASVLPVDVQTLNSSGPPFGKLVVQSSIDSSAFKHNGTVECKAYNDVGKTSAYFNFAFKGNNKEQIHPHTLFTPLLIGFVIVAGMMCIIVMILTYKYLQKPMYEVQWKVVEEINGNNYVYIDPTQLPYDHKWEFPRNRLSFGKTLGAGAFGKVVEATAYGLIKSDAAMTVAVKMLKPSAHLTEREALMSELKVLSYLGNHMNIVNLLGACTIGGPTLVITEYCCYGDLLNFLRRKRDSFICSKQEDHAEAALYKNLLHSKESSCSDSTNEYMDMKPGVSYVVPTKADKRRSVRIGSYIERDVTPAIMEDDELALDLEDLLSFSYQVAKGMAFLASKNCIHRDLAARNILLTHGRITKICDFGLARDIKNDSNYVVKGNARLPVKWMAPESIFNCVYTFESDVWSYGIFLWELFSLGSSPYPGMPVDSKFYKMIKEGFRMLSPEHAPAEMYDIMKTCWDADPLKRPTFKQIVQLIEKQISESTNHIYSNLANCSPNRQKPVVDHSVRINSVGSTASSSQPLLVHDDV

| Structure (SMILES) | IC50 (Table 1, 1% FBS) [nM] | also measured |
| --- | --- | --- |
| Cc1ccc(Nc2noc(-c3nccn3C)n2)cc1NC(=O)c1cnc2ccccn12 [F16, N-(2-methyl-5-{[5-(1-methyl-1H-imidazol-2-yl)-1,2,4-oxadiazol-3-yl]amino}phenyl)imidazo[1,2-a]pyridine-3-carboxamide] | 27 |  |
| Cc1ccc(-c2noc(-c3ccccc3N3CCN(C)CC3)n2)cc1NC(=O)c1cnc2ccccn12 [F52, N-(2-methyl-5-{5-[2-(4-methylpiperazin-1-yl)phenyl]-1,2,4-oxadiazol-3-yl}phenyl)imidazo[1,2-a]pyridine-3-carboxamide] |  | IC50 (Table 2, 1% FBS): 433 nM |
| Cc1ccc(Nc2noc(-c3cnccn3)n2)cc1NC(=O)c1cnc2ccccn12 [F18, N-(2-methyl-5-{[5-(pyrazin-2-yl)-1,2,4-oxadiazol-3-yl]amino}phenyl)imidazo[1,2-a]pyridine-3-carboxamide] | 9 |  |
| Cc1ccc(F)c(-c2noc(-c3ccc(C)c(NC(=O)c4cnc5ccccn45)c3)n2)c1 [F39, N-{5-[3-(2-fluoro-5-methylphenyl)-1,2,4-oxadiazol-5-yl]-2-methylphenyl}imidazo[1,2-a]pyridine-3-carboxamide] |  | IC50 (Table 2, 20% FBS instead of 1% FBS (values marked *)): 104 nM |
